According to patent US20250152494A1, “COSMETIC COMPOSITION CONTAINING RETINOID, EXTRACT OF CENTELLA ASIATICA AND A DIPEPTIDE” (THE BOOTS COMPANY PLC, priority 2022, published 2025):

System: IL-6
Assay: Retinol (Inumax)-induced IL-6 production in primary adult human dermal fibroblast cells
Type: cell-based
Settings: lower effective retinoid concentrations (lower than 0.5% by weight of the composition)
Method: Primary adult human dermal fibroblast cells were incubated with 0.1% microencapsulated retinol commercially available and sold y Evonik under the trade name Inumax. Inumax was diluted in cell culture media to a final concentration of 0.1% and the dilution was used as an inflammatory reaction control. The anti-inflammatory activity of Bisabolol and Centella asiatica was compared in comparison to the control by incubating adult human dermal fibroblast cells with 0.1% inumax in supernatant in the presence of Bisabolol and Centella asiatica, both in combination with dipeptide, at a range of concentrations. Cells were incubated fro 24 hours at 37 C and 5% CO2, in the presence of the actives. At the end of incubation time the supernatant was removed for IL-6 testing. An MTT (3-(4,5-dimethylthiazol-2-yl)-2,5-diphenyltetrazolium bromide) assay was performed on the treated cells to confirm cell metabolic activity following treatment. The levels of IL-6 in supernatant were determined using the Invitrogen IL-6 assay.

Substance: α-bisabolol
- reducing the retinol induced IL-6 production and consequential skin sensitivity: beneficial in reducing the retinol induced IL-6 production
